Results on 33 molecules are retold here after ChEMBL document CHEMBL4219199, “Synthesis and evaluation of aminobenzothiazoles as blockers of N- and T-type calcium channels” (Bioorg Med Chem, 2018).

A word on the IC50: it is the concentration that inhibits the measured activity by half. The term half-life denotes the time in which the quantity being followed falls by half. A lower half-life goes with fast loss. The term EC50 denotes the midpoint of the concentration-response curve.

A value given as a limit tells only on which side of the number the result lay.

For series [1], the target named is Voltage-dependent N-type calcium channel subunit alpha-1B (Homo sapiens, UniProt Q00975). Description: Inhibition of Cav2.2 in human SH-SY5Y cells assessed as decrease in KCl-induced calcium mobilization measured after 600 secs post compound addition and 300 secs post KCl addition in presence of CaV1 blocker nifedipine by calcium 4 dye-based FLIPR assay. The class given is cell-based. In general terms: A change in cytosolic calcium serves as a functional read-out for many receptors and channels.

Series [2] has as its target Voltage-dependent T-type calcium channel subunit alpha-1H (Homo sapiens, UniProt O95180). The series is described as follows: Inhibition of recombinant human Cav3.2-alpha1 expressed in HEK293T cells assessed as decrease in KCl-induced calcium mobilization measured after 600 secs post compound addition and 300 secs post KCl addition by calcium 4 dye-based FLIPR assay. The series is classed as cell-based.

A short description of series [3]: Metabolic stability in rat plasma assessed as parent compound remaining at 120 uM after 24 hrs by HPLC analysis relative to control. The series is classed as ADME, cell-free. Conditions: read-out: Stability.
A short description of series [4]: Half life in rat plasma. The series is classed as ADME, cell-free.
The target of series [5] is Voltage-dependent N-type calcium channel subunit alpha-1B (Rattus norvegicus, UniProt Q02294). The series is described as follows: Displacement of [125I]GVIA from rat brain membrane Cav2.2 after 1 hr by gamma counting method. In general terms: Loss of bound radioactivity is the signal in a displacement assay; it reports binding, not function.

Sequence of Voltage-dependent T-type calcium channel subunit alpha-1H (O95180 whole entry): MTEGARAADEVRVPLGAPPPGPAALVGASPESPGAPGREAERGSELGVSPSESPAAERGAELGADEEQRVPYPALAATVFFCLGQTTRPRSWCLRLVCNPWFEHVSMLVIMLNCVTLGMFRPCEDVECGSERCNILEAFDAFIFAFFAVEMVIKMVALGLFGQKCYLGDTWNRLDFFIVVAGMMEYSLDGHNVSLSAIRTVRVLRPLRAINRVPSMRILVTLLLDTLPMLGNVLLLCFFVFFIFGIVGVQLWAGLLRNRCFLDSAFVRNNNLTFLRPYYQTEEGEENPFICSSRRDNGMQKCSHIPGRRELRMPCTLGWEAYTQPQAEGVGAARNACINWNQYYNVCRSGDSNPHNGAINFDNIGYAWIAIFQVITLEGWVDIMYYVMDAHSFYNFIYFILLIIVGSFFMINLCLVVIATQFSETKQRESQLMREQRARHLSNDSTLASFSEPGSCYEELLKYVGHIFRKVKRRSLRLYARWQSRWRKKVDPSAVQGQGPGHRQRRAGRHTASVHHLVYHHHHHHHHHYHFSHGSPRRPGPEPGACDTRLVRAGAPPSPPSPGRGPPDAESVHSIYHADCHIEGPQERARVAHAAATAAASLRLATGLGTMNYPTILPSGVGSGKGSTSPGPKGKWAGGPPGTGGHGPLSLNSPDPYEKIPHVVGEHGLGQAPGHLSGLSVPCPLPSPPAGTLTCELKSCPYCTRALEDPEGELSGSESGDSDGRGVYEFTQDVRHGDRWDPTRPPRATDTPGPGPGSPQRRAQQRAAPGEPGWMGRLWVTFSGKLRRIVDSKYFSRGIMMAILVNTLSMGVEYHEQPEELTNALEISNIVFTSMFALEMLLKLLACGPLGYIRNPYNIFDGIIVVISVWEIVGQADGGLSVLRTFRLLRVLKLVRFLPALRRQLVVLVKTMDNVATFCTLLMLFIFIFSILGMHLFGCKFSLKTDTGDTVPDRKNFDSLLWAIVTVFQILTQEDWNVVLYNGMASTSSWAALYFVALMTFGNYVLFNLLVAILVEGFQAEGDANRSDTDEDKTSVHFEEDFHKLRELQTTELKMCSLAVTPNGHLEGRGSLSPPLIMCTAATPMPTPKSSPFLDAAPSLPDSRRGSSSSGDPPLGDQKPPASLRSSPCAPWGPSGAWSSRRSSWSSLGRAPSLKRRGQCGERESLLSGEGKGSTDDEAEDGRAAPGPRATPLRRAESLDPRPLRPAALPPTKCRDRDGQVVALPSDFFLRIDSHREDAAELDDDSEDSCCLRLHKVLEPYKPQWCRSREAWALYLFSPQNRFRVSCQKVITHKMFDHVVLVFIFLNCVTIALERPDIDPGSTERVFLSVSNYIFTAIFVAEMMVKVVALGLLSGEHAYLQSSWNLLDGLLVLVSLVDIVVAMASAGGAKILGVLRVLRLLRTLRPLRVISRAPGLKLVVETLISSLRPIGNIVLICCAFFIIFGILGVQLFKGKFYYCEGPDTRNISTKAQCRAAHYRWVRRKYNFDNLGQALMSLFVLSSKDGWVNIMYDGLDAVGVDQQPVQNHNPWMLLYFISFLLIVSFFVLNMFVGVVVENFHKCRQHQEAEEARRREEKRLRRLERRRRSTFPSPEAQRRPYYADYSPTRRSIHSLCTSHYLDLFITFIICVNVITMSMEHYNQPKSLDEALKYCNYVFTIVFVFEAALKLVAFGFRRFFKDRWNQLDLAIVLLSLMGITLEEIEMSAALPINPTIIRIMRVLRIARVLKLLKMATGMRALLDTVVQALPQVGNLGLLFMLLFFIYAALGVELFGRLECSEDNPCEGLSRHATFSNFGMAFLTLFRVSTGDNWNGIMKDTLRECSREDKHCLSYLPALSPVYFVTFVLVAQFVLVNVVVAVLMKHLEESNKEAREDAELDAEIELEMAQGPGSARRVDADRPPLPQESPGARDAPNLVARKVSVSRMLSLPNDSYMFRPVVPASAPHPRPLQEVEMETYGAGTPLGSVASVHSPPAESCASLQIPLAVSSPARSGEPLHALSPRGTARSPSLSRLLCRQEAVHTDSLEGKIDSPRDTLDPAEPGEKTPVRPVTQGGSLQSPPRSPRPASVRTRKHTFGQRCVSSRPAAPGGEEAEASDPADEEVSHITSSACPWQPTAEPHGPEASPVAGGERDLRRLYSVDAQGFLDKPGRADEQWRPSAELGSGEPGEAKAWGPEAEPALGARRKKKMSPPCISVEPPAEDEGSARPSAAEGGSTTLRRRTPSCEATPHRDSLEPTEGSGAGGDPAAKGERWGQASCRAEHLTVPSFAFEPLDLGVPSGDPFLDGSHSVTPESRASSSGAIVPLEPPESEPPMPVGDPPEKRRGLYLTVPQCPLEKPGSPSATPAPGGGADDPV
Sequence of Voltage-dependent N-type calcium channel subunit alpha-1B (Homo sapiens, UniProt Q00975) (Q00975 whole entry): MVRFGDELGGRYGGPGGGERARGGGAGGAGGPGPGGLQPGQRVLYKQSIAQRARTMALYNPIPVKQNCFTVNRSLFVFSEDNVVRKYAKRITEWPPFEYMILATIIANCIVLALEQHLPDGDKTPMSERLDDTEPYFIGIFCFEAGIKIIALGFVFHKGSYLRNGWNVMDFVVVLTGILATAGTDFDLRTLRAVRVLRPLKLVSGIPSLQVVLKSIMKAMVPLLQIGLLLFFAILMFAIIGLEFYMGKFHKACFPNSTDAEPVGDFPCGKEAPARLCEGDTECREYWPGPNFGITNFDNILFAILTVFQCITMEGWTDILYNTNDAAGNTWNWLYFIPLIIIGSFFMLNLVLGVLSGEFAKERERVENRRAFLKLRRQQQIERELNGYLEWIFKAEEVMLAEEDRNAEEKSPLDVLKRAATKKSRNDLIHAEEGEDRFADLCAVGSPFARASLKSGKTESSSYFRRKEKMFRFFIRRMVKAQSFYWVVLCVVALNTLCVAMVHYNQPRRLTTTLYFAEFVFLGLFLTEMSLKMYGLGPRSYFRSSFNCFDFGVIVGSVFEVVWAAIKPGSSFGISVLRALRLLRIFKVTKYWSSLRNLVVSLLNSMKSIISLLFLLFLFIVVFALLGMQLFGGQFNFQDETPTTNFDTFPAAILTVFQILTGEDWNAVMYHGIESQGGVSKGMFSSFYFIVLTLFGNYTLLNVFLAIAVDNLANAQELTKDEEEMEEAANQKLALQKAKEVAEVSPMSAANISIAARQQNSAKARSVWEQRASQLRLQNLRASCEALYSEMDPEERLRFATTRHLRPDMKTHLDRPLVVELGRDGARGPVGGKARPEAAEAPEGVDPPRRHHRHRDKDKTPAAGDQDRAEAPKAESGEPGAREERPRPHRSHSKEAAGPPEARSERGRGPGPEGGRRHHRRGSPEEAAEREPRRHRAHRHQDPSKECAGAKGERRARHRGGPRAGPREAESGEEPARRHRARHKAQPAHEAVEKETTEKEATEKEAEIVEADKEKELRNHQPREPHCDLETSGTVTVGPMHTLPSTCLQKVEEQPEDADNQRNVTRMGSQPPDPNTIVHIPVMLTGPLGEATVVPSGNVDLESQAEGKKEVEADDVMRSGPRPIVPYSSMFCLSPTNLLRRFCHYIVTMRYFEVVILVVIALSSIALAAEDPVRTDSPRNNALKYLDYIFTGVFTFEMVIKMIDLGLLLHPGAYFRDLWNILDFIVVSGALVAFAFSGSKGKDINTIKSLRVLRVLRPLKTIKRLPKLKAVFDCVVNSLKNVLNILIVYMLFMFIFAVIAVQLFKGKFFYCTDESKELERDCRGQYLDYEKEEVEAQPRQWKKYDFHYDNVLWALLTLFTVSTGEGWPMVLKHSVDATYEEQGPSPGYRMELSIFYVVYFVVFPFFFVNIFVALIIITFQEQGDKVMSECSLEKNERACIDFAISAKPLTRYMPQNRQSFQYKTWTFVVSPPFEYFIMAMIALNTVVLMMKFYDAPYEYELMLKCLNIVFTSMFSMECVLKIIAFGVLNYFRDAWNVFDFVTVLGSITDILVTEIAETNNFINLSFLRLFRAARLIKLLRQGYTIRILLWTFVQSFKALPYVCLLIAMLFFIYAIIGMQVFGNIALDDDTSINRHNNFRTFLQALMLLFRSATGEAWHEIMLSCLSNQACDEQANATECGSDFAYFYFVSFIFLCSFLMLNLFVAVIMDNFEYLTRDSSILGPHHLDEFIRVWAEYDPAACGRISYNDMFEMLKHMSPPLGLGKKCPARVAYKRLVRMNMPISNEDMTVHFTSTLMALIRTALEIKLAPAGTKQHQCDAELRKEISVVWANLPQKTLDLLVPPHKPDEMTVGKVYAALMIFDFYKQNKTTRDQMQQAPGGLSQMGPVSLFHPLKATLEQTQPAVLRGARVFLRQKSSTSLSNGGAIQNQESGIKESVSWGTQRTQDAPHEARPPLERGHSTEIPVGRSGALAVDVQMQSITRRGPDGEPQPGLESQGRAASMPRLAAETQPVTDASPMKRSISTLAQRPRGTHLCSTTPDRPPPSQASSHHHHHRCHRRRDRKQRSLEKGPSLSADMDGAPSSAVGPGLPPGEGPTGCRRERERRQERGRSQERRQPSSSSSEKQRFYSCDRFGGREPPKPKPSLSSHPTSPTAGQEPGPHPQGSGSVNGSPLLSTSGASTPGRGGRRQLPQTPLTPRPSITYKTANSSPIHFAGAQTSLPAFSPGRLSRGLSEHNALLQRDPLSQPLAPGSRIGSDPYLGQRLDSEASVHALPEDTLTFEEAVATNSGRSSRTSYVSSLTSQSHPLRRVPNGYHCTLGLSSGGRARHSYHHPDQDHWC

For `CN(Cc1ccc(OCCCN)cc1)c1nc2ccc(Oc3ccccc3)cc2s1`, the IC50 in series [1] came out at 49 µM; in series [2] it was 95 µM.

Regarding `CN(C)CCCOc1ccc(CNc2nc3ccc(Oc4ccc(F)cc4)cc3s2)cc1`, the IC50 is 40 µM in series [1] and > 1000 µM in series [2].

Consider `NC(N)=NCCCOc1ccc(CNc2nc3ccc(Oc4ccccc4)cc3s2)cc1`, for which the IC50 in series [1] is 103 µM; in series [2] it was 166 µM.

With `CN(Cc1ccc(OCCCNC(=N)N)cc1)c1nc2ccc(Oc3ccccc3)cc2s1`, the IC50 in series [1] amounted to 113 µM; in series [2], 498 µM.

Consider `NCCCOc1ccc(CNc2nc3ccc(Oc4ccc(F)cc4)cc3s2)cc1.O=C(O)C(F)(F)F`, for which the IC50 in series [1] is 106 µM; in series [2], 688 µM. For the same molecule, the remaining at 24 h, 120 µM in series [3] worked out at 75%. Besides, the half-life in series [4] was > 24 h.

Consider `N=C(N)NCCCOc1ccc(CNc2nc3ccc(Oc4ccc(F)cc4)cc3s2)cc1`, for which the IC50 in series [1] was found to be 244 µM; in series [2], 288 µM.

As to `NCCCOc1ccc(CNc2nc3ccc(Oc4ccccc4)cc3s2)cc1`, the figures for the IC50 in series [1] and in series [2] were 218 µM and > 1000 µM, respectively.

Turning to `CN(Cc1ccc(OCCCNC(=N)N)cc1)c1nc2ccc(Oc3cccc(C(F)(F)F)c3)cc2s1.O=C(O)C(F)(F)F`, the IC50 in series [1] came to 202 µM; in series [2], 771 µM. Also, the remaining at 24 h, 120 µM in series [3] was found to be 95%. Besides, in series [4], the half-life is > 24 h.

Turning to `N=C(N)NCCCOc1ccc(CNc2nc3ccc(Oc4cccc(C(F)(F)F)c4)cc3s2)cc1`, the IC50 in series [1] stood at 130 µM; in series [2] it was 270 µM.

For the molecule `CN(Cc1ccc(OCCCN)cc1)c1nc2ccc(Oc3ccc(C(F)(F)F)cc3)cc2s1`, the IC50 was 283 µM in series [1] and 248 µM in series [2].

As for `NCCCOc1ccc(CNc2nc3ccc(Oc4ccc(O)cc4)cc3s2)cc1`, the IC50 was determined as 205 µM in series [1] and 300 µM in series [2].

As to `CN(C)CCCOc1ccc(CN(C)c2nc3ccc(Oc4ccc(C#N)cc4)cc3s2)cc1`, the IC50 in series [1] turned out to be 69 µM; in series [2] it was 64 µM.

For the molecule `CN(C)CCCOc1ccc(CN(C)c2nc3ccc(Oc4ccc(C(F)(F)F)cc4)cc3s2)cc1`, the IC50 in series [1] came to 46 µM; in series [2], 54 µM.

In the case of `CN(Cc1ccc(OCCCN)cc1)c1nc2ccc(Oc3cccc(C(F)(F)F)c3)cc2s1.O=C(O)C(F)(F)F`, the IC50 was determined as 77 µM in series [1] and 239 µM in series [2]. Further, in series [3], the remaining at 24 h, 120 µM was 100%. The half-life in series [4] was > 24 h.

`N#Cc1ccc(Oc2ccc3nc(NCc4ccc(OCCCNC(=N)N)cc4)sc3c2)cc1`: the IC50 was 368 µM in series [1] and 326 µM in series [2].

Take `O=C(CC(c1ccccc1)c1ccccc1)N1CCN(C(c2ccccc2)c2ccccc2)CC1` [Z160]: the IC50 stood at 39 µM in series [1] and 45 µM in series [2].

On to `CN(Cc1ccc(OCCCNC(=N)N)cc1)c1nc2ccc(Oc3ccc(F)cc3)cc2s1`, for which the IC50 worked out at 100 µM in series [1] and 521 µM in series [2].

In the case of `NCCCOc1ccc(CNc2nc3ccc(Oc4ccc(C(F)(F)F)cc4)cc3s2)cc1`, the IC50 in series [1] came out at 59 µM; in series [2] it was 112 µM.

`CN(Cc1ccc(OCCCNC(=N)N)cc1)c1nc2ccc(Oc3ccc(C#N)cc3)cc2s1`: the IC50 in series [1] turned out to be 143 µM; in series [2] it was 153 µM.

Turning to `N=C(N)NCCCOc1ccc(CNc2nc3ccc(Oc4ccc(O)cc4)cc3s2)cc1`, the IC50 in series [1] turned out to be 253 µM; in series [2] it was 319 µM.

Take `CN(Cc1ccc(OCCCNC(=N)N)cc1)c1nc2ccc(Oc3ccc(O)cc3)cc2s1`: the IC50 in series [1] stood at 432 µM; in series [2], 332 µM.

`CN(Cc1ccc(OCCCN)cc1)c1nc2ccc(Oc3ccc(F)cc3)cc2s1`: the IC50 came out at 98 µM in series [1] and 492 µM in series [2].

Turning to `CN(Cc1ccc(OCCCNC(=N)N)cc1)c1nc2ccc(Oc3ccc(C(F)(F)F)cc3)cc2s1`, the IC50 in series [1] worked out at 185 µM; in series [2], 212 µM.

As for `NCCCOc1ccc(CNc2nc3ccc(Oc4cccc(C(F)(F)F)c4)cc3s2)cc1`, the IC50 in series [1] was 144 µM; in series [2], 171 µM.

In the case of `N#Cc1ccc(Oc2ccc3nc(NCc4ccc(OCCCN)cc4)sc3c2)cc1`, the IC50 in series [1] stood at 41 µM; in series [2] it was 109 µM.

With `CN(C)CCCOc1ccc(CNc2nc3ccc(Oc4ccc(C#N)cc4)cc3s2)cc1`, the IC50 was determined as 105 µM in series [1] and 41 µM in series [2].

On to `CN(Cc1ccc(OCCCN)cc1)c1nc2ccc(Oc3ccc(C#N)cc3)cc2s1`, for which the IC50 was determined as 65 µM in series [1] and 328 µM in series [2].

Turning to `N=C(N)NCCCOc1ccc(CNc2nc3ccc(Oc4ccc(C(F)(F)F)cc4)cc3s2)cc1.O=C(O)C(F)(F)F`, the values for the IC50 in series [1] and in series [2] were 167 µM and 195 µM, respectively. In series [3], the remaining at 24 h, 120 µM came to 91%. In series [4], the half-life is > 24 h.

For `NCCCOc1ccc(CN(C(=O)c2ccccc2OCCCN)c2nc3ccc(Oc4ccc(O)cc4)cc3s2)cc1`, in series [5], the EC50 was 5.4 µM.

For `CN(C)CCCOc1ccc(CNc2nc3ccc(Oc4cccc(C(F)(F)F)c4)cc3s2)cc1`, the IC50 in series [1] amounted to 51 µM; in series [2], 110 µM.

Turning to `CC(C)[C@H]1c2ccc(F)cc2CC[C@@]1(CCN(C)CCCc1nc2ccccc2[nH]1)OC(=O)C1CC1`, in series [1], the IC50 stood at 7 µM.

Take `CN(Cc1ccc(OCCCN)cc1)c1nc2ccc(Oc3ccc(O)cc3)cc2s1`: the IC50 in series [1] came out at 117 µM; in series [2], 165 µM.

With `NCCCOc1ccccc1C(=O)N(Cc1ccc(OCCCN=C(N)N)cc1)c1nc2ccc(Oc3ccc(O)cc3)cc2s1`, the EC50 in series [5] turned out to be 5.7 µM.
